{
  "source": "ChEMBL document CHEMBL5465560",
  "about": "“Selectivity Literature for EUbOPEN Chemogenomic Library” (2024)",
  "key": {"[1]": {"biological_target": "T1, Ephrin type-B receptor 6 (Homo sapiens) (UniProt O15197)", "T1 sequence (whole entry)": "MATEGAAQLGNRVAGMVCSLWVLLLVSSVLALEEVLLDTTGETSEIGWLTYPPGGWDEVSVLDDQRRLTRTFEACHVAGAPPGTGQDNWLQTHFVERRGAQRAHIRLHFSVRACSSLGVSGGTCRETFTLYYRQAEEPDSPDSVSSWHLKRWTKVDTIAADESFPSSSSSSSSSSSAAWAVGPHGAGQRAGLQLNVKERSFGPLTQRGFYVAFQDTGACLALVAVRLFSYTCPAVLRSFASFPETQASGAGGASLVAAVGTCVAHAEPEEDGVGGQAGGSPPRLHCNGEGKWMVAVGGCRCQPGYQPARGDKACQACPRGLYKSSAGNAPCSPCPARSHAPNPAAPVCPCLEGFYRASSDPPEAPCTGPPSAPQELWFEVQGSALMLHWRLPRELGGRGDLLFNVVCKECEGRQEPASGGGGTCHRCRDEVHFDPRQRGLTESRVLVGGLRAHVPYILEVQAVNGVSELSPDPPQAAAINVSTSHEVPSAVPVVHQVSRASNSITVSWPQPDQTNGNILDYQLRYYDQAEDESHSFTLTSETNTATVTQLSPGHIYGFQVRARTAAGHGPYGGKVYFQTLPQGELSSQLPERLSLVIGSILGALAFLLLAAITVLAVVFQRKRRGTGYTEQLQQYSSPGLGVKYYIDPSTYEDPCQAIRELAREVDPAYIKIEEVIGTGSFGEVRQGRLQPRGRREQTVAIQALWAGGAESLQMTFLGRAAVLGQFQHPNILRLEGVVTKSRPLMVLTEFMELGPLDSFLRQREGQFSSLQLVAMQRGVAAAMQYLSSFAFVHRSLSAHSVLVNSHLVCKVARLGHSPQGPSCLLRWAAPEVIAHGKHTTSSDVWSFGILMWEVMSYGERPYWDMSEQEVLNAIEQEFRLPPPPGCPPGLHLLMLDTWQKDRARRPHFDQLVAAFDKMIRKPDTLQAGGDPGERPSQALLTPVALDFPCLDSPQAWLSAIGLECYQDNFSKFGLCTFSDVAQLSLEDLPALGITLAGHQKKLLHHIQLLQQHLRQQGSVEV", "assay": "Selectivity interaction (KinomeScan (DiscoverX)) EUB0000655a EPHB6", "details": "at 10 µM"}, "[2]": {"biological_target": "Serine/threonine-protein kinase PRP4 homolog (Homo sapiens) (UniProt Q13523)", "assay": "Selectivity interaction (KinomeScan (DiscoverX)) EUB0001079a PRPF4B", "details": "at 1 µM"}, "[3]": {"biological_target": "RAF proto-oncogene serine/threonine-protein kinase (Homo sapiens) (UniProt P04049)", "sequence (P04049 whole entry)": "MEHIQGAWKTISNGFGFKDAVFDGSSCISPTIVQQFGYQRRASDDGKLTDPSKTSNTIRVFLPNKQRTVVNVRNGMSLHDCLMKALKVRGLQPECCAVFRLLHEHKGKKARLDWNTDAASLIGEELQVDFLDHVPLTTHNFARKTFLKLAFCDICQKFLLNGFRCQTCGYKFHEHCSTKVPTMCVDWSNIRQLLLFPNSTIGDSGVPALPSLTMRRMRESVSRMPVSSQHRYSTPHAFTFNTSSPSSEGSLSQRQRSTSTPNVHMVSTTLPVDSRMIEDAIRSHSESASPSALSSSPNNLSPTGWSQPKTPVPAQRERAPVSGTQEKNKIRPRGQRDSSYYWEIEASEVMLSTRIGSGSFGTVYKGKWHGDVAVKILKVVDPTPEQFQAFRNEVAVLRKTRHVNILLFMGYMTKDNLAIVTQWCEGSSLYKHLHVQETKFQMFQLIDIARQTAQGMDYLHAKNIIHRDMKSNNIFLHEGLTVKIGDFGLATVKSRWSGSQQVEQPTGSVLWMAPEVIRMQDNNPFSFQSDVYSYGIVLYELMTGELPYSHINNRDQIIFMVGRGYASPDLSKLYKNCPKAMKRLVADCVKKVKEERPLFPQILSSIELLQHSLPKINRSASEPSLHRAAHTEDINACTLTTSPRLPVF", "assay": "Selectivity interaction (KinomeScan (DiscoverX)) EUB0000666a RAF1", "details": "at 10 µM"}, "[4]": {"biological_target": "Tyrosine-protein kinase Fgr (Homo sapiens) (UniProt P09769)", "sequence (P09769 2-529 limits assumed)": "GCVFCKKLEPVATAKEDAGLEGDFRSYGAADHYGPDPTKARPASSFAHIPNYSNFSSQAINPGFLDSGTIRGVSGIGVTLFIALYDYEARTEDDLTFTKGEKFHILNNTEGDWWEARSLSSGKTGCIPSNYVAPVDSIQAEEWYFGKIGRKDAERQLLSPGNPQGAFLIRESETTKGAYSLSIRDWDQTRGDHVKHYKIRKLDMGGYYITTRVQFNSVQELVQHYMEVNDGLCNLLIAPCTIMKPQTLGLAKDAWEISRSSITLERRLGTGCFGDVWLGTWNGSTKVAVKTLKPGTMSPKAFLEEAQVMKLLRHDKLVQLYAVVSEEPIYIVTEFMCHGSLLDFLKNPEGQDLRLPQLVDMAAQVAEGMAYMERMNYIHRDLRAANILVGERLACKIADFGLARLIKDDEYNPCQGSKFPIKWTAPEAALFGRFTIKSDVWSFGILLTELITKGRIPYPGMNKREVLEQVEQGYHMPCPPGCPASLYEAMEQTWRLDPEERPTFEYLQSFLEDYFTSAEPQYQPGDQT", "assay": "Selectivity interaction (KinomeScan (DiscoverX)) EUB0000666a FGR", "details": "at 10 µM"}, "[5]": {"biological_target": "T2, Serine/threonine-protein kinase D1 (Homo sapiens) (UniProt Q15139)", "T2 sequence (whole entry)": "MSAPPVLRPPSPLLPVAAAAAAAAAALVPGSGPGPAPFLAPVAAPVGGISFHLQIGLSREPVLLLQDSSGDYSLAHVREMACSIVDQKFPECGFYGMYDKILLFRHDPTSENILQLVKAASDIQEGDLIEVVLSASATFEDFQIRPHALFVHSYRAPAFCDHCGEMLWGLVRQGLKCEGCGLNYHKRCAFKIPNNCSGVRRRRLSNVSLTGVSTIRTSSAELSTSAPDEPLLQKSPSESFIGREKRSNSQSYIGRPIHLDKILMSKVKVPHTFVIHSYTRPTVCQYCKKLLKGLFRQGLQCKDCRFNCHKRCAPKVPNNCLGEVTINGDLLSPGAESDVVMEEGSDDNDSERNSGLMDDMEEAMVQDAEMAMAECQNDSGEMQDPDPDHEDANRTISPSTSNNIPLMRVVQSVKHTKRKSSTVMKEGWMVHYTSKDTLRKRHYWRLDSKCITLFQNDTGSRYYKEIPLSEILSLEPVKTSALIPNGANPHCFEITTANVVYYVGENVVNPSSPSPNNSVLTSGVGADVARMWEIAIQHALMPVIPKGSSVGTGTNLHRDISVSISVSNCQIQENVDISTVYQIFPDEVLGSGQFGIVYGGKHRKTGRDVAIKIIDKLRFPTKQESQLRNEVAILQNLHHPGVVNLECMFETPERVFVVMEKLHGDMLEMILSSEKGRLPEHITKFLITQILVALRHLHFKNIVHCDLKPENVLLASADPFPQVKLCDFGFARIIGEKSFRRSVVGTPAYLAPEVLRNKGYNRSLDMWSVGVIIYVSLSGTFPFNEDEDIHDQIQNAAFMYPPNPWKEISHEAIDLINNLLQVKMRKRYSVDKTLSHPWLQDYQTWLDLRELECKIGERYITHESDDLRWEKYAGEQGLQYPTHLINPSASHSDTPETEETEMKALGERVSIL", "assay": "Selectivity interaction (KinomeScan (DiscoverX)) EUB0001049a PRKD1", "details": "at 1 µM"}, "[6]": {"test_system": "Epidermal growth factor receptor (Homo sapiens), P00533 [UNDEFINED MUTATION]", "sequence (P00533 whole entry, looked up, change not shown)": "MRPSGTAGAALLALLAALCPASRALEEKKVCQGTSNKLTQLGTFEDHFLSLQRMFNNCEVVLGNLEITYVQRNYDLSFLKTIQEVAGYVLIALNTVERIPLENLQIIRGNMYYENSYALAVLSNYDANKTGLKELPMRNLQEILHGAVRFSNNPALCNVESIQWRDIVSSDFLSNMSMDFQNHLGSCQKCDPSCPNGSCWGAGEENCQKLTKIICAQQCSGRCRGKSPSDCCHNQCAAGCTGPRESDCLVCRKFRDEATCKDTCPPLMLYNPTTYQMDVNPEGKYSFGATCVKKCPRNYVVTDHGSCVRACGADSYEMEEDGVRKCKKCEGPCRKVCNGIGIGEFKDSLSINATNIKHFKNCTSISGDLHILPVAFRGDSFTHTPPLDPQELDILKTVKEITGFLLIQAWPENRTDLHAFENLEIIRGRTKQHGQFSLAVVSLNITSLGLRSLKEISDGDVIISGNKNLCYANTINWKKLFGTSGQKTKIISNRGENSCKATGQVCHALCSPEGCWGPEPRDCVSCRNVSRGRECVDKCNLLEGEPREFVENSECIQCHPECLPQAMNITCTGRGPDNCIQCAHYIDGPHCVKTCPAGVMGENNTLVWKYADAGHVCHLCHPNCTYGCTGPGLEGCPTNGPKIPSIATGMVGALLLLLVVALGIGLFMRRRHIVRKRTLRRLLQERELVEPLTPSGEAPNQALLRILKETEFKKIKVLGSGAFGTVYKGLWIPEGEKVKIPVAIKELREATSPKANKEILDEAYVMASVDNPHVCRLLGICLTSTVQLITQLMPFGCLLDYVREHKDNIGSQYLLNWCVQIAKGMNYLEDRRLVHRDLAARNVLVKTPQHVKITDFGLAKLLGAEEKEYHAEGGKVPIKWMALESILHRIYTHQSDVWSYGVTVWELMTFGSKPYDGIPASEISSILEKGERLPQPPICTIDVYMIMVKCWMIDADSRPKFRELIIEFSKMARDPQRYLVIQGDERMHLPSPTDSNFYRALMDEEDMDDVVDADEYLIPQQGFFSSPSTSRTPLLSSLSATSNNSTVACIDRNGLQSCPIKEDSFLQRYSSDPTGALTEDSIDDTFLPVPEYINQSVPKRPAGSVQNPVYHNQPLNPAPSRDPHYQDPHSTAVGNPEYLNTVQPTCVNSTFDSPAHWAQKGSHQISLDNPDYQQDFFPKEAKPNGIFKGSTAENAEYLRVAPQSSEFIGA", "assay": "Selectivity interaction (KinomeScan (DiscoverX)) EUB0000618a EGFR", "details": "at 10 µM"}, "[7]": {"biological_target": "L-type calcium channel Cav1.2 (CACNA1C) (Homo sapiens, UniProt Q13936)", "sequence (Q13936 whole entry)": "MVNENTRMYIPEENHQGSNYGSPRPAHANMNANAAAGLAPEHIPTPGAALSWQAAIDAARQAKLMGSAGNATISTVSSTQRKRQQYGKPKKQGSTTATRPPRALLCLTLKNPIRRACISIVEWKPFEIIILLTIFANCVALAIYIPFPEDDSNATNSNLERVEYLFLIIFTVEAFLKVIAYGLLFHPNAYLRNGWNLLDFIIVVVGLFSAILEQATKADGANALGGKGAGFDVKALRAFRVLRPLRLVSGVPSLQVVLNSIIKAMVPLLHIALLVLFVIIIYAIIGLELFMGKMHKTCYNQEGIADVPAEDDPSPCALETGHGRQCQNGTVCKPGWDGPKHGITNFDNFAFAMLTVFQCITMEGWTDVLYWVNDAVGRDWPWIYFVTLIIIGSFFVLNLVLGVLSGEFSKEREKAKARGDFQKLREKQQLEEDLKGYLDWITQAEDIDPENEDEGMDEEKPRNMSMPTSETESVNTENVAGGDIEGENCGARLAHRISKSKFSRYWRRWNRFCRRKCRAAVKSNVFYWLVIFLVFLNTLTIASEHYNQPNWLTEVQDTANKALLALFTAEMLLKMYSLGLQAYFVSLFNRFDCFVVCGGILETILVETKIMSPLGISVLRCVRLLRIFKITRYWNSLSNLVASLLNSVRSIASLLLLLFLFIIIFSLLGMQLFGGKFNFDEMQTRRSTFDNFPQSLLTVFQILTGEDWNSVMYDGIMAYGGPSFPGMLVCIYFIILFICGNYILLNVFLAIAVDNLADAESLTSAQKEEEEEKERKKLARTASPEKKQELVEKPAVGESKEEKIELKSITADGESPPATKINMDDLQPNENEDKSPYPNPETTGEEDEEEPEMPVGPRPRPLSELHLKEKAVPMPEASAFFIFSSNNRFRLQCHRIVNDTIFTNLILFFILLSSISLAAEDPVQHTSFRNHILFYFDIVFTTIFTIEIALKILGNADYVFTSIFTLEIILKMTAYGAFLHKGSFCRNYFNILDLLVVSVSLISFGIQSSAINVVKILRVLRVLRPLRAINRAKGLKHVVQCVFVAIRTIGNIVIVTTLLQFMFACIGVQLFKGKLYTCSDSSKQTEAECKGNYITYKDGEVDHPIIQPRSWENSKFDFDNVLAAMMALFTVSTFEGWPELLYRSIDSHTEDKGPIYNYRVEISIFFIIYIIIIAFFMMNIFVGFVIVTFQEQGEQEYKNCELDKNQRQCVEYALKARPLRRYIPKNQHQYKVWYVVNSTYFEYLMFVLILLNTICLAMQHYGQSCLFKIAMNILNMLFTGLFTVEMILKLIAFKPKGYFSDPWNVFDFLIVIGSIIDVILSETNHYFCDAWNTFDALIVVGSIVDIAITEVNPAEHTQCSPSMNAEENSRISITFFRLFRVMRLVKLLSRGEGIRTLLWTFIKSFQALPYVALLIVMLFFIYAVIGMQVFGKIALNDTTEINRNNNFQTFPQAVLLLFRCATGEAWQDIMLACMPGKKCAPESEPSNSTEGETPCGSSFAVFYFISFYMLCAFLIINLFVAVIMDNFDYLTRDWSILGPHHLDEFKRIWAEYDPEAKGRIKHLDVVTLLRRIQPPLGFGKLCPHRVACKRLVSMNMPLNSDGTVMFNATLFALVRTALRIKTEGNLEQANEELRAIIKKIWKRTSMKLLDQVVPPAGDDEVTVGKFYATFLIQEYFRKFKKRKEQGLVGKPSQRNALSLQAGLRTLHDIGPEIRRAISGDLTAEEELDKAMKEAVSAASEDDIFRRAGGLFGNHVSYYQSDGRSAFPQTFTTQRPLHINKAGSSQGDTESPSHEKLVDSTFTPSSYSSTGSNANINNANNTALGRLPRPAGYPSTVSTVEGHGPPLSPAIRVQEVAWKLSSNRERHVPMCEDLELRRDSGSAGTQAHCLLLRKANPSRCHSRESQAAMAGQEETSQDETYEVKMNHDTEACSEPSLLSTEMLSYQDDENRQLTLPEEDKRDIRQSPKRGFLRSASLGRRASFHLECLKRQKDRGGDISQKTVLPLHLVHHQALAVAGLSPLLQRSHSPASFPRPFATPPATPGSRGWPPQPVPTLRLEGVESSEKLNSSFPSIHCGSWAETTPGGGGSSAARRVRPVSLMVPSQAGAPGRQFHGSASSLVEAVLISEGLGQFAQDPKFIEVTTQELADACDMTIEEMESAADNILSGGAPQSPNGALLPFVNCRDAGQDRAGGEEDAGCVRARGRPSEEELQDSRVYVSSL", "assay": "Selectivity interaction (Eurofins CEREP Diversity Profile (receptors and ion channels)) EUB0000279b CACNA1C", "details": "at 10 µM, read-out: % of control"}, "[8]": {"biological_target": "T3, Serine/threonine-protein kinase Nek11 (Homo sapiens) (UniProt Q8NG66)", "T3 sequence (whole entry)": "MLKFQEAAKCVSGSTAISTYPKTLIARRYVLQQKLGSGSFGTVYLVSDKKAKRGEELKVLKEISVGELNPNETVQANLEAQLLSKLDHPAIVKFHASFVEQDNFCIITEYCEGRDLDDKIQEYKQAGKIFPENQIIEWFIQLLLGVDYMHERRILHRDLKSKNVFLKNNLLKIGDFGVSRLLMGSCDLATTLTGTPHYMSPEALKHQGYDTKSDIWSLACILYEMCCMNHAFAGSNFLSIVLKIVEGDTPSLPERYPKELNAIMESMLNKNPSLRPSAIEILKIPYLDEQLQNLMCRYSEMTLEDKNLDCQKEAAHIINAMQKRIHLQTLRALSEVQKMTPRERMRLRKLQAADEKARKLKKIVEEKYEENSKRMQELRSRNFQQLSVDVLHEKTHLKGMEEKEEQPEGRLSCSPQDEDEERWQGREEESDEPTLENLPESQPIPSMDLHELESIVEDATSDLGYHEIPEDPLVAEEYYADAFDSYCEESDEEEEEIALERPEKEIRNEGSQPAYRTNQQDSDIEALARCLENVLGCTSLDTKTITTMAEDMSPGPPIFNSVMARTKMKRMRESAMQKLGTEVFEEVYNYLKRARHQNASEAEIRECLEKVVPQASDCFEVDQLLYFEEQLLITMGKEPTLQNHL", "assay": "Selectivity interaction (Ambit KINOMEscan and KiNATiv profiling in Jurkat cells) EUB0000090b NEK11", "type": "cell-based", "details": "at 1 µM"}},
  "data": [
    {"smiles": "CN(C)CCOc1ccc(-c2nc(-c3ccncc3)c(-c3ccc4c(c3)CC/C4=N\\O)[nH]2)cc1", "values": [
      {"measurement": "% of control", "setting": "[1]", "value": 34, "unit": "%"}
    ]},
    {"smiles": "Nc1cnc(N2CCc3cc(S(=O)(=O)Nc4c(F)cc(Cl)cc4F)cc(N4CCCC4=O)c32)nc1", "note": "[TP-020n]", "values": [
      {"measurement": "% of control", "setting": "[2]", "value": 76, "unit": "%"}
    ]},
    {"smiles": "O=C(NOC[C@H](O)CO)c1ccc(F)c(F)c1Nc1ccc(I)cc1F", "values": [
      {"measurement": "% of control", "setting": "[3]", "value": 99, "unit": "%"},
      {"measurement": "% of control", "setting": "[4]", "value": 95, "unit": "%"}
    ]},
    {"smiles": "COc1cc(Nc2nc(C)cc(-c3cnn4nc(OC)ccc34)n2)cc(C(F)(F)F)c1", "values": [
      {"measurement": "% of control", "setting": "[5]", "value": 100, "unit": "%"}
    ]},
    {"smiles": "O[C@H]1CC[C@H](Nc2ncc3nc(Nc4c(F)cc(F)cc4F)n([C@H]4CCOC4)c3n2)CC1", "values": [
      {"measurement": "% of control", "setting": "[6]", "value": 9.4, "unit": "%"}
    ]},
    {"smiles": "CC(=O)c1cc(-c2ccccc2OCC2CC2)c2ncccn12", "values": [
      {"measurement": "activity", "setting": "[7]", "value": 21, "unit": "%"}
    ]},
    {"smiles": "CN(C)C/C=C/C(=O)Nc1ccc(C(=O)N2CCCC(Nc3ncc(Cl)c(-c4c[nH]c5ccccc45)n3)C2)cc1", "note": "(stereo not drawn)", "values": [
      {"measurement": "% of control", "setting": "[8]", "value": 90, "unit": "%"}
    ]}
  ]
}
